Test results published in ChEMBL document CHEMBL5705903, “A DNA Hypomethylation Signature Predicts Antitumor Activity of LSD1 Inhibitors in SCLC” (Cancer Cell, 2015).
pIC50: −log10 of the molar value.

Tests used:
[1] = Effect on cleaved PARP level in human COLO-668 cells assessed as relative expression at 10 nM measured after 14 days by Western blot analysis (reference value: 3.50); assay type: functional; conditions: time 14 day
[2] = Dose normalized AUC (0 to last) in mouse tumor at 5 mg/kg, po by HPLC/MS/MS analysis; assay type: ADME, organism-based, Neoplasm; conditions: in vivo
[3] = Effect on cleaved PARP level in human NCI-H69 cells assessed as fold change at 100 nM measured after 14 days by Western blot analysis (reference value: 1.00); assay type: functional; conditions: time 14 day
NCI-H526 [4] = test: In vivo inhibition of LSD1 in human NCI-H526 cells xenografted in nude mouse assessed as change in ODZ2 gene expression measured after 24 hrs post single administration by qRT-PCR analysis; assay type: functional, organism-based; conditions: dose 0.06-135 mg/kg
[5] = Effect on cleaved PARP level in human NCI-H510 cells assessed as fold change at 1000 nM measured after 7 days by Western blot analysis (reference value: 1.00); assay type: functional, NCI-H510A; conditions: time 7 day
[6] = Effect on cleaved PARP level in human NCI-H1417 cells assessed as fold change at 1000 nM measured after 10 days by Western blot analysis (reference value: 1.00); assay type: functional; conditions: time 10 day
[7] = Effect on cleaved PARP level in human NCI-H69 cells assessed as fold change at 10 nM measured after 7 days by Western blot analysis (reference value: 1.00); assay type: functional; conditions: time 7 day
[8] = Effect on cleaved PARP level in human NCI-H889 cells assessed as fold change at 100 nM measured after 10 days by Western blot analysis (reference value: 1.00); assay type: functional; conditions: time 10 day
[9] = Effect on cleaved PARP level in human NCI-H510 cells assessed as relative expression at 100 nM measured after 7 days by Western blot analysis (reference value: 0.24); assay type: functional, NCI-H510A; conditions: time 7 day
[10] = Effect on cleaved PARP level in human NCI-H526 cells assessed as fold change at 10 nM measured after 10 days by Western blot analysis (reference value: 1.00); assay type: functional; conditions: time 10 day
NCI-H2171 = test: Antitumor activity against human NCI-H2171 cells xenografted in nude mouse assessed as tumor growth inhibition at […] mg/kg, po administered daily measured twice weekly relative to control; assay type: functional; conditions: read-out: TGI
[11] = Effect on cleaved PARP level in human NCI-H524 cells assessed as relative expression at 100 nM measured after 7 days by Western blot analysis (reference value: 0.63); assay type: functional; conditions: time 7 day
[12] = Effect on cleaved PARP level in human NCI-H510 cells assessed as relative expression at 1000 nM measured after 14 days by Western blot analysis (reference value: 0.01); assay type: functional, NCI-H510A; conditions: time 14 day
NCI-H1417 = test: Antitumor activity against human NCI-H1417 cells xenografted in nude mouse assessed as mean tumor volume at 1.5 mg/kg, po administered daily measured twice weekly (reference value: 2262 +/- 299 mm3); assay type: functional
NCI-H526 [13] = test: In vivo inhibition of LSD1 in human NCI-H526 cells xenografted in nude mouse assessed as change in ZEB1 gene expression measured after 24 hrs post single administration by qRT-PCR analysis; assay type: functional, organism-based; conditions: dose 0.06-135 mg/kg
[14] = biological target: Amine oxidase [flavin-containing] B (Homo sapiens, UniProt P27338); test: Inhibition of MAO-B (unknown origin)
Chain of Amine oxidase [flavin-containing] B (P27338 whole entry): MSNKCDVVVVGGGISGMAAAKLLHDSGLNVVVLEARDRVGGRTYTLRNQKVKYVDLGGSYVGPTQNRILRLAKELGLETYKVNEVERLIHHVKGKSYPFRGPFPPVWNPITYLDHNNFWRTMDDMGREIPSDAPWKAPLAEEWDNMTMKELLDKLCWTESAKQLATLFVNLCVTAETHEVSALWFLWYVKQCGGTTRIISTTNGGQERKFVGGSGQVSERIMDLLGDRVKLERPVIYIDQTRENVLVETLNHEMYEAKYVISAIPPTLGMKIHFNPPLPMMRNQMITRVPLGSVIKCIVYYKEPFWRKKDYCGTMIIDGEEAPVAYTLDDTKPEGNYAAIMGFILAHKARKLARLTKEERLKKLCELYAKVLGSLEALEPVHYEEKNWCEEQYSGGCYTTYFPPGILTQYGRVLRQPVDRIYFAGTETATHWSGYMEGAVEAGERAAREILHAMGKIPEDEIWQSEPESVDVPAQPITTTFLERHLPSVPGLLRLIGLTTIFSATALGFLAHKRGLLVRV

[15] = Effect on cleaved PARP level in human NCI-H1417 cells assessed as relative expression at 10 nM measured after 14 days by Western blot analysis (reference value: 0.38); assay type: functional; conditions: time 14 day
[16] = Effect on cleaved PARP level in human COLO-668 cells assessed as fold change at 10 nM measured after 14 days by Western blot analysis (reference value: 1.00); assay type: functional; conditions: time 14 day
[17] = Effect on cleaved PARP level in human NCI-H69 cells assessed as relative expression at 1000 nM measured after 10 days by Western blot analysis (reference value: 0.03); assay type: functional; conditions: time 10 day
[18] = Effect on cleaved PARP level in human NCI-H526 cells assessed as relative expression at 1000 nM measured after 7 days by Western blot analysis (reference value: 0.57); assay type: functional; conditions: time 7 day
[19] = Effect on cleaved PARP level in human NCI-H889 cells assessed as fold change at 100 nM measured after 14 days by Western blot analysis (reference value: 1.00); assay type: functional; conditions: time 14 day
[20] = Effect on cleaved PARP level in human NCI-H526 cells assessed as fold change at 10 nM measured after 14 days by Western blot analysis (reference value: 1.00); assay type: functional; conditions: time 14 day
[21] = Toxicity in dog assessed as thrombocytopenia measured for 28 days; set-up: species or system Canis lupus familiaris; conditions: in vivo, 672 h, time 28 day
[22] = Effect on cleaved PARP level in human NCI-H510 cells assessed as fold change at 100 nM measured after 7 days by Western blot analysis (reference value: 1.00); assay type: functional, NCI-H510A; conditions: time 7 day
[23] = Effect on cleaved PARP level in human NCI-H510 cells assessed as fold change at 10 nM measured after 7 days by Western blot analysis (reference value: 1.00); assay type: functional, NCI-H510A; conditions: time 7 day
NCI-H526 [24] = test: In vivo inhibition of LSD1 in human NCI-H526 cells xenografted in nude mouse assessed as change in UMODL1 gene expression measured after 24 hrs post single administration by qRT-PCR analysis; assay type: functional, organism-based; conditions: dose 0.06-135 mg/kg
[25] = Effect on cleaved PARP level in human NCI-H526 cells assessed as fold change at 10 nM measured after 7 days by Western blot analysis (reference value: 1.00); assay type: functional; conditions: time 7 day
[26] = Effect on cleaved PARP level in human NCI-H146 cells assessed as fold change at 1000 nM measured after 14 days by Western blot analysis (reference value: 1.00); assay type: functional; conditions: time 14 day
[27] = Toxicity in rat assessed as neutrophenia measured for 28 days; conditions: in vivo, 672 h, time 28 day
[28] = Effect on cleaved PARP level in human NCI-H146 cells assessed as relative expression at 10 nM measured after 7 days by Western blot analysis (reference value: […]); assay type: functional; conditions: time 7 day
[29] = Effect on cleaved PARP level in human NCI-H146 cells assessed as relative expression at 10 nM measured after 10 days by Western blot analysis (reference value: 0.27); assay type: functional; conditions: time 10 day
[30] = Antitumor activity against human PDX L36 cells xenografted in mouse assessed as tumor growth inhibition at 1.5 mg/kg administered daily measured for 20 days relative to control; assay type: functional; conditions: PDX LX36, 480 h, time 20 day, read-out: TGI
[31] = Effect on cleaved PARP level in human NCI-H146 cells assessed as relative expression at 10 nM measured after 14 days by Western blot analysis (reference value: 2.42); assay type: functional; conditions: time 14 day
[32] = Toxicity in mouse xenografted with human NCI-H526 cells assessed as drug tolerance at 1.5 mg/kg, po administered daily measured for 30 days; assay type: organism-based; conditions: in vivo, 720 h, time 30 day
[33] = Effect on cleaved PARP level in human NCI-H526 cells assessed as relative expression at 100 nM measured after 14 days by Western blot analysis (reference value: 0.66); assay type: functional; conditions: time 14 day
[34] = Tmax in mouse blood at 5 mg/kg, po by HPLC/MS/MS analysis; assay type: ADME, organism-based

## O=C(O)c1ccc(CN2CCC(CN[C@@H]3C[C@H]3c3ccccc3)CC2)cc1 [GSK2879552]
[1]
  Activity: 1.45
[2]
  AUClast/dose: 464 ng·h/mL/mg/kg
[3]
  fold change (FC): 5.03
NCI-H526 [4]
  inhibition: Dose-Dependent Effect
[5]
  fold change (FC): 2.06
[6]
  fold change (FC): 2.12
[7]
  fold change (FC): 1.26
[8]
  fold change (FC): 2.25
[9]
  Activity: 0.43
[10]
  fold change (FC): 0.57
NCI-H2171
  inhibition in vivo at 1.25 mg/kg: 37%
[11]
  Activity: 0.6
[12]
  Activity: 0.47
NCI-H1417
  Activity: 546 mm3
NCI-H526 [13]
  inhibition: Dose-Dependent Effect
[14]
  pIC50: 4.70
[15]
  Activity: 0.31
[16]
  fold change (FC): 0.41
[17]
  Activity: 0.09
[18]
  Activity: 0.74
[19]
  fold change (FC): 2.51
[20]
  fold change (FC): 0.73
[21]
  Activity: Toxic
[22]
  fold change (FC): 1.84
[23]
  fold change (FC): 1.27
NCI-H526 [24]
  inhibition: Dose-Dependent Effect
[25]
  fold change (FC): 0.85
[26]
  fold change (FC): 0.6
[27]
  Activity: Toxic
[28]
  Activity: 2.37
[29]
  Activity: 0.33
[30]
  inhibition in vivo at 1.5 mg/kg: 19%
[31]
  Activity: 1.54
[32]
  Activity: Non-Toxic
[33]
  Activity: 0.93
[34]
  Tmax: 15 min
